Among the data in patent US9737542B2, “Pyrrolotriazine kinase inhibitors” (BRISTOL-MYERS SQUIBB COMPANY, priority 2013, dated 2017) are IC50 values, retold here.

Structures are written as SMILES.

For this test, the target named is GST-Xa-hAAK1 (Homo sapiens (Human), UniProt Q2M2I8). In words: AAK1 Kinase Assay. The test is classed as biochemical. Conditions: ATP 22 μM, 3 hours at room temperature.
Sequence of GST-Xa-hAAK1 (Q2M2I8 whole entry): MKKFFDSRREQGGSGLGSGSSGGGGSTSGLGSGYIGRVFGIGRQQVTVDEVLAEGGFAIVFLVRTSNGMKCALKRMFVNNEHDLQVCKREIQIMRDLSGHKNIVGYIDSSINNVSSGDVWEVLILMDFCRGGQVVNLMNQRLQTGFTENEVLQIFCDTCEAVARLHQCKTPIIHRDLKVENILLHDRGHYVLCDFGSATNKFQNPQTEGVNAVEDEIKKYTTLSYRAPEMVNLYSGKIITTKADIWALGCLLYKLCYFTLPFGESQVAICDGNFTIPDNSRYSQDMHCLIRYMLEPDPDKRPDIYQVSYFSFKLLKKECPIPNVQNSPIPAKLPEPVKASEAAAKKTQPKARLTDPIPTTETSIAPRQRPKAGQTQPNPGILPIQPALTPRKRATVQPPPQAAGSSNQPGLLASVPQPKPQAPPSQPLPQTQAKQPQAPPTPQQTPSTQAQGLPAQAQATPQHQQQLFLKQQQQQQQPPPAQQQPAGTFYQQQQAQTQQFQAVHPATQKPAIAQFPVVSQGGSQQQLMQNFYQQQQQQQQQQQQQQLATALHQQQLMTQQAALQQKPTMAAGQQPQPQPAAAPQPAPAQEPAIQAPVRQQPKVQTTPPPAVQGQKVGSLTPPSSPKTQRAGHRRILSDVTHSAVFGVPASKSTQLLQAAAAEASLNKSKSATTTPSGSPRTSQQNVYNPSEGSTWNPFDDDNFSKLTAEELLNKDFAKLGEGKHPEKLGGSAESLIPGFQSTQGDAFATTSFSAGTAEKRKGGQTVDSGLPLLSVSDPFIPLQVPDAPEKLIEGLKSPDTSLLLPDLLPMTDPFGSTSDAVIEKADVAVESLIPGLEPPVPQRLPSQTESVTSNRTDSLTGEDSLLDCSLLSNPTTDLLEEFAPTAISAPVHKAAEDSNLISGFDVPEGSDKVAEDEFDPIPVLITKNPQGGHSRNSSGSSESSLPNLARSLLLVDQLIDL

Description: The assays were performed in U-bottom 384-well plates. […] The reactions were initiated by the combination of bacterially expressed, GST-Xa-hAAK1 with substrates and test compounds. The reactions were incubated at room temperature for 3 hours and terminated by adding 60 μl of 35 mM EDTA buffer to each sample. The reactions were analyzed on the Caliper LabChip 3000 (Caliper, Hopkinton, Mass.) by electrophoretic separation of the fluorescent substrate and phosphorylated product. Inhibition data were calculated by comparison to EDTA quenched control reactions for 100% inhibition and vehicle-only reactions for 0% inhibition. […] Dose response curves were generated to determine the concentration required inhibiting 50% of kinase activity (IC50). Compounds were dissolved at 10 mM in dimethylsulfoxide (DMSO) and evaluated at eleven concentrations. IC50 values were derived by non-linear regression analysis.

In turn, `NC1CCN(Cc2ccn3ncnc(Nc4cccc(-c5cnco5)c4)c23)CC1` [Example 1, 5-((4-aminopiperidin-1-yl)methyl)-N-(3-(oxazol-5-yl)phenyl)pyrrolo[2,1-f][1,2,4]triazin-4-amine] displayed an IC50 (listed as IC50 ranges) of 100 to 1000 nM.
Same read-out and setting: next, `CC(C)c1nc(-c2cccc(Nc3ncnn4ccc(CN5CCC(N)CC5)c34)c2)no1` [Example 2, 5-((4-aminopiperidin-1-yl)methyl)-N-(3-(5-isopropyl-1,2,4-oxadiazol-3-yl)phenyl)pyrrolo[2,1-f][1,2,4]triazin-4-amine]: 10 to 100 nM; `CC(C)c1nc(-c2ccc(O)c(Nc3ncnn4ccc(CN5CCC(N)CC5)c34)c2)no1` [Example 3, 2-((5-((4-aminopiperidin-1-yl)methyl)pyrrolo[2,1-f][1,2,4]triazin-4-yl)amino)-4-(5-isopropyl-1,2,4-oxadiazol-3-yl)phenol]: 10 to 100 nM.
In the case of `C=Cc1cccc(Nc2ncnn3ccc(CN4CCC(N)CC4)c23)c1` [Example 4, 5-((4-aminopiperidin-1-yl)methyl)-N-(3-vinylphenyl)pyrrolo[2,1-f][1,2,4]triazin-4-amine], the IC50 (listed as IC50 ranges) was 100 to 1000 nM.
Same read-out and setting: next, `CC(C)(C)c1nc(-c2cccc(Nc3ncnn4ccc(CN5CCC(N)CC5)c34)c2)no1` [Example 5, 5-((4-aminopiperidin-1-yl)methyl)-N-(3-(5-(tert-butyl)-1,2,4-oxadiazol-3-yl)phenyl)pyrrolo[2,1-f][1,2,4]triazin-4-amine]: 10 to 100 nM; `CCC(C)(C)c1nc(-c2cccc(Nc3ncnn4ccc(CN5CCC(N)CC5)c34)c2)no1` [Example 6, 5-((4-aminopiperidin-1-yl)methyl)-N-(3-(5-(tert-pentyl)-1,2,4-oxadiazol-3-yl)phenyl)pyrrolo[2,1-f][1,2,4]triazin-4-amine]: 10 to 100 nM.
On the same count and under the same terms, with `NC1CCN(Cc2ccn3ncnc(Nc4cc(O)cc(-c5ncco5)c4)c23)CC1` [Example 7, 3-((5-((4-aminopiperidin-1-yl)methyl)pyrrolo[2,1-f][1,2,4]triazin-4-yl)amino)-5-(oxazol-2-yl)phenol] the figure was 100 to 1000 nM.
Molecule `CC(C)n1nnc(-c2cccc(Nc3ncnn4ccc(CN5CCC(N)CC5)c34)c2)n1` [Example 8, 5-((4-aminopiperidin-1-yl)methyl)-N-(3-(2-isopropyl-2H-tetrazol-5-yl)phenyl)pyrrolo[2,1-f][1,2,4]triazin-4-amine] returned an IC50 of 7.3 nM.
With `CC(C)c1nnc(-c2cccc(Nc3ncnn4ccc(CN5CCC(N)CC5)c34)c2)s1` [Example 9, 5-((4-aminopiperidin-1-yl)methyl)-N-(3-(5-isopropyl-1,3,4-thiadiazol-2-yl)phenyl)pyrrolo[2,1-f][1,2,4]triazin-4-amine], the IC50 (listed as IC50 ranges) lay in the range of 10 to 100 nM.
On the same count and under the same terms, next, `CC(C)(CO)c1nc(-c2cccc(Nc3ncnn4ccc(CN5CCC(N)CC5)c34)c2)no1` [Example 10, 2-(3-(3-((5-((4-aminopiperidin-1-yl)methyl)pyrrolo[2,1-f][1,2,4]triazin-4-yl)amino)phenyl)-1,2,4-oxadiazol-5-yl)-2-methylpropan-1-ol]: 10 to 100 nM; `NC1CCN(Cc2ccn3ncnc(Nc4cccc(-c5noc(CCl)n5)c4)c23)CC1` [Example 11, 5-((4-aminopiperidin-1-yl)methyl)-N-(3-(5-(chloromethyl)-1,2,4-oxadiazol-3-yl)phenyl)pyrrolo[2,1-f][1,2,4]triazin-4-amine]: 100 to 1000 nM.
For the molecule `Cn1ccc(-c2cccc(Nc3ncnn4ccc(CN5CCC(N)CC5)c34)c2)n1` [Example 12, 5-((4-aminopiperidin-1-yl)methyl)-N-(3-(1-methyl-1H-pyrazol-3-yl)phenyl)pyrrolo[2,1-f][1,2,4]triazin-4-amine], the IC50 is 446 nM.
`Cc1nc(-c2cccc(Nc3ncnn4ccc(CN5CCC(N)CC5)c34)c2)no1` [Example 13, 5-((4-aminopiperidin-1-yl)methyl)-N-(3-(5-methyl-1,2,4-oxadiazol-3-yl)phenyl)pyrrolo[2,1-f][1,2,4]triazin-4-amine]: the IC50 (listed as IC50 ranges) fell in the range of 100 to 1000 nM.

A word on the IC50: it is the point on the concentration scale where inhibition reaches its midpoint. A low value points to greater potency in that assay.
